Series [1] deals with thioredoxin reductase (TR). As to the kind of experiment: Selenocystine TR assay (SC-TR assay). Type of series: biochemical, mouse. The settings on record: for Efficiency of reduction by TR: L- versus racemic selenocystine as substrate; for Inhibition of TR activity (NADPH turnover, A340): C10 whole cell lysates, FIG. 2B. As to the method: Selenocystine TR assay. Cells were plated into 60 mm tissue culture dishes and the following day were washed with ice-cold 1× phosphate buffered saline (PBS) and lysed in the culture dish by adding either TE Buffer (50 mM Tris/HCl pH 7.5, 1 mM EDTA) or NP-40 lysis buffer (150 mM NaCl, 50 mM Tris pH 8.0, 1% NP-40, 1 μg/mL leupeptin, 1 μg/mL aprotinin, 1 mM NaF, 1 mM NaVO3, 1 mM PMSF) as indicated in the text. Cell lysates were scraped from culture dishes on ice and transferred to 1.5 mL microcentrifuge tubes. TE buffer lysates were sonicated at 4° C. for 30 sec with 1-2 sec pulses using a sonic dismembrator. TE and NP-40 lysates were centrifuged for 10 min at 14,000 rpm at 4° C. and protein concentrations of the supernatants were determined by reading the absorption at 595 nm of Bradford reagent. A total reaction volume of 100 μl was assembled in a clear 96-well round bottom microplate containing the following: (i) master mix containing 1 mM NADPH and 2 mM selenocystine (SC) in ddH2O (addition of 40 μl of master mix to 100 μl reaction volume yields final concentrations of 400 μM and 800 μM respectively), (ii) 25 μg or the largest practical amount of protein, (iii) TE or NP-40 lysis buffer. Controls for each sample included protein only control, protein and NADPH control, and protein and SC control. Control master mixes contained: (i) 2 mM NADPH in ddH2O (addition of 20 μl to 100 μl reaction volume yields final concentration of 400 μM), (ii) 2 mM SC prepared as described above (addition of 40 μl to 100 μl reaction volume yields final concentration of 800 μM).
Each master mix was separately placed into a clean, sterile pipet basin and pipetted quickly into the wells of a 96-well microplate with a multichannel pipetter making sure to avoid bubbles. This approach was used in order that each sample was exposed to the master mix at the same time to ensure homogeneity of results. The plate was read in 30 sec intervals over a 20 min time period at 340 nm on a Synergy HT Microplate Reader™ (BioTek). Because the assay monitors the consumption of NADPH at 340 nm, an activity can be calculated by using Beer's Law and an extinction coefficient of 6,220 M^−1 cm^−1 for NADPH. The activity can be reported as mol NADPH consumed per min. Bradford assays for total protein concentration determination can be performed directly in each well of the 96-well plate. If this is done, then the activity can be reported as mol NADPH consumed per min per mg of total protein. For the data presented in FIGS. 2 and 5, 1 unit of TR activity is defined as the amount of TR that will consume 1 nmol of NADPH per min.

Series [2] deals with thioredoxin reductase (TR). Put plainly: Discontinuous insulin end-point TR assay. Particulars: for Inhibition of TR activity: C10 whole cell lysates, end-point TR assay, FIG. 2A. Type of series: biochemical, mouse. As to the method: Discontinuous insulin end-point assay. Cell lysates were prepared in TE buffer as described above and the sonicated lysates were centrifuged for 10 min at 14,000 rpm at 4° C. Supernatants were transferred to fresh 1.5 mL microcentrifuge tubes and protein concentrations were determined by a Bradford assay. A total reaction volume of […] was assembled by addition of 20 μL master mix to 20 μL of 25 μM E. coli Trx solution. The master mix contained 50 mM Tris/Cl pH 7.5, 1 mM EDTA, 900 μM NADPH (257 μM final), and 4.5 mg/mL insulin (1.3 mg/mL final). After addition of all of the components to a cuvette, the reactions were incubated at room temperature for 60 min and terminated by the addition of 930 μL of 6 M guanidine•HCL containing 1 mM 5,5′-dithio-bis(2-nitrobenzoic acid) (DTNB) solution prepared in ethanol; activity was detected by reading absorbance at 412 nm in a spectrophotometer. TR activity was determined by calculating the difference between identical samples +/− Trx. Here the activity is expressed as arbitrary units as determined by the raw A412 reading. Alternatively, the number of units can be calculated by using Beer's Law and an extinction coefficient of 13,600 M^−1 cm^−1 for the TNB anion. One unit of TR activity is the amount of enzyme catalyzing the reduction of 1 μM of DTNB per min (formation of 2 μmol TNB anion).

The next series deals with T1, glutathione reductase (Homo sapiens, UniProt P00390).
T1 sequence (P00390 44-522): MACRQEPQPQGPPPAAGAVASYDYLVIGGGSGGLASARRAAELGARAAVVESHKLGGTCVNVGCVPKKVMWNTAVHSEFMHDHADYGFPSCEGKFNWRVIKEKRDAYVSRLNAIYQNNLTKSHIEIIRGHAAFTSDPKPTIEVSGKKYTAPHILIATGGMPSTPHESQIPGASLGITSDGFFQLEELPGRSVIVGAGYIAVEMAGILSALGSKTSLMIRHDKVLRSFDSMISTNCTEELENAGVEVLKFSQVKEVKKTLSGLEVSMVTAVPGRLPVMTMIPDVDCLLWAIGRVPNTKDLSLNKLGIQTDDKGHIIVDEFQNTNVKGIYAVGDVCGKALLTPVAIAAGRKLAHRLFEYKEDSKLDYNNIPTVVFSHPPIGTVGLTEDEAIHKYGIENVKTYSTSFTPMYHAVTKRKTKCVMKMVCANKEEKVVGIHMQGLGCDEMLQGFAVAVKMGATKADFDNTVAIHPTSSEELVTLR
Put plainly: Reduction of selenocystine by glutathione reductase in vitro. Particulars: same experimental conditions under which TR reduces selenocystine. The format is biochemical.

The next series deals with TR1. As to the kind of experiment: Immunoblot of TR1 expression after siRNA knockdown in C10 cells. The settings on record: Western blot, FIG. 3E. The format is cell-based, mouse. From the text:
TR over-expression and gene silencing. Full length TR1 was amplified from pCMV6-XL4 vector by PCR using specific forward (5′-[…]-3′) and reverse (5′-[…]-3′) primers and subsequently cloned into pcDNA 3.1 mammalian expression vector. Insertion of WT-TR1 full-length cDNA, including the 3′ SECIS element, into pcDNA 3.1 was confirmed by sequencing using the appropriate forward and reverse primer sets (T7 Forward: BGH Reverse). WT-TR1 or empty pcDNA 3.1 vector were transfected into C10 cells according to manufacturer's protocol. Specific siRNA to TR1 (si-TR1, 5′-[…]-3′) and a control (“scramble”) RNA (5′-[…]-3′) were introduced into C10 cells following the manufacturers guidelines (Dharmacon).
Immunoblotting. Equal protein amounts from cell lysates were separated on 10% gels by SDS-PAGE. Proteins were transferred to PVDF membrane for immunoblotting, and membranes then were blocked in 5% milk (Tris buffered saline with 0.1% Tween, TBST) for 1 hr at room temperature. Anti-TR1 (1:1000) anti-Trxl (1:2000) and anti-actin (1:5000) antibodies were diluted in 5% milk/TBST and incubated with membranes for 1 hr at room temperature. […] Membranes were washed 5× with TBST and HRP secondary antibodies were detected using Enhanced Chemiluminescent™ solution and collected on X-ray film.
On the technique in general: A western blot detects proteins with antibodies after separation by electrophoresis.

Turning to `N[C@@H](C[Se][Se]C[C@H](N)C(=O)O)C(=O)O` (racemic) [racemic selenocystine, selenocystine], the “Efficiency of reduction by TR” value in series [1] is reported as “equal efficiencies”.

In the case of `N[C@@H](C[Se][Se]C[C@H](N)C(=O)O)C(=O)O` [L-selenocystine], in series [1], the “Efficiency of reduction by TR” value was “equal efficiencies”.

Turning to `C=CC=O` [acrolein], the “Inhibition of TR activity in cells over expressing TR1 and TR2” value in series [2] (C10 cells transfected with TR1 and TR2, TE buffer lysates, end-point assay, FIG. 2C) was “inhibited to an equal extent”; in series [1] (C10 cells transfected with TR1 and TR2, TE buffer lysates, SC-TR assay, FIG. 2D), “inhibited to an equal extent”. Moreover, the results for the “Inhibition of TR activity” value in series [2] and in series [2] (listed as Acrolein) were “inhibition of total TR activity” and “completely inhibits”, respectively. For the same compound, the “Inhibition of TR activity (NADPH turnover, A340)” value in series [1] (SC-TR assay) is on record as “complete inhibition”; in series [1] (SC-TR assay, listed as Acrolein), “completely inhibits”.

As for `CC(=O)OC[C@H]1O[C@@H]([S-])[C@H](OC(C)=O)[C@@H](OC(C)=O)[C@@H]1OC(C)=O.CCP(CC)CC.[Au+]` [auranofin], the “Sensitivity of TR activity to inhibitor, TE buffer versus NP-40 buffer” value in series [1] (lysates from treated C10 cells prepared in TE buffer or NP-40 lysis buffer, FIG. 4) was “equivalent”.

Consider `N[C@@H](C[Se][Se]C[C@H](N)C(=O)O)C(=O)O` [selenocystine], for which the “Reduction of substrate by glutathione reductase” value at glutathione reductase is on record as “does not reduce”.

Take “siRNA: Specific siRNA to TR1 (si-TR1, 5′-CCAUAGAGGGCGAAUUUAAUU-3′) (listed as RNA, chemistry not given here)”: the “TR activity after knockdown of TR1” value in series [1] (C10 cells transfected with siRNA, SC-TR assay, FIG. 3A) is “reduced TR activity below control levels”. In addition, in the series on TR1, the “TR1 protein expression after knockdown” value was “reduced the expression of TR1 for up to 48 hrs”.
